Test results as given in US8252829B2, “Aminopyrrolidinone derivatives and uses thereof” (Link Medicine Corporation, priority 2009, dated 2012).

Columns and labels:
[1] = tested on: Farnesyl Transferase (Ras farnesylation) in COS-7 cells; test: Cellular assay for farnesyl transferase activity (cytosolic Ras in COS-7 cells, Western blot); format: cell-based; settings: 24 hr treatment, cytosolic Ras/actin ratio, read-out: Cell IC50
Source text: Ras is a small GTP binding protein whose farnesylation and condequent membrane association can be reduced by inhibition of farnesyl transferase (Appels et al., Oncologist 10:565-578, 2005; Basso et al., J. Lipid Res. 47:15-31, 2006; Tamanoi, Trends Biochem. Sci. 18:349-353, 1993; each of which is incorporated herein by reference). Treatment with certain farnesyl transferase inhibitors (FTIs) reduces the farnesylation and membrane association of Ras, leading to accumulation of Ras in the cytosol of the cells. An assay was developed to monitor FTase activity, based on the amount of Ras present in the cytosolic fraction of COS-7 cells after FTI treatment. On day 0, COS-7 cells were passaged into 6-well plates at a density of 4×10^5 cells/well. Beginning on day 1, cells were treated with test compounds (e.g. FTIs) in 0.2% DMSO for 24 hr. On day 2, cells were lysed by passage through a 25 gauge needle 10 times in 100 μl Buffer 1 (50 mM Tris, 140 mM NaCl, 2 mM EDTA, protease inhibitor cocktail, pH 7.4) and lysates were centrifuged at 16,000 g for 30 min to isolate the cytosolic fraction (supernatant). The cytosolic fraction was analyzed by Western blot using anti-Ras antibody and anti-actin antibody for loaning control.
Western Blotting: Following transfer of SDS gels onto NC membrane, all membranes were blocked with 5% non-fat milk in TBST (50 mM Tris-HCl pH7.4, 150 mM NaCl, 0.1% Tween 20), incubated with primary antibody overnight with 1% BSA in TBST, washed three times with TBST, and incubated with horseradish peroxidase-conjugated secondary antibody for 1 hour (Promega). Bound antibodies were detected using enhanced chemiluminascence (NEM). Results were quantified based on densitometric analysis of Ras signal normalized to actin signal (Ras/actin ratio). Dose response curves were generated for serial dilutions of test compounds, which were then used to measure an IC50 for the test compound by curve fitting with Prism or equivalent software product.

[2] = biological target: farnesyl transferase (FTase) (Homo sapiens, UniProt P49354+P49356); test: In vitro farnesyl transferase assay (fluorescent dansyl-pentapeptide); format: biochemical; settings: dGCVLS 4 μM, FPP 5 μM, 25-50 nM FTase, 1% DMSO, room temperature
Description: Compounds were analyzed for inhibition of farnesyl transferase (FTase) activity using an established fluorescent peptide-based assay (Pompliano et al 1992 J. Am. Chem. Soc. 114:7945; U.S. Pat. No. 5,525,479, issued Jun. 11, 1996; each of which is incorporated herein by reference). In summary, a dansyl-pentapeptide (dGCVLS) was incubated at 4 μM with 5 μM farnesyl pyrophosphate (FPP) and 25-50 nM FTase in 50 mM Tris-HCl/12 mM MgCl2/12 μM ZnCl2/6 mM DTT/0.2% octyl-D-β-glucopyranoside/pH 7.0 at room temperature while the increase in fluorescence of the peptide at Ex=340 nm, Em=485 nm upon farnesyl addition was monitored continuously by a spectrofluorometer. Test compounds were added to the reaction mixture and the final results were compared to negative control (with solvent only), to allow measurement of the degreee of inhibition at each concentration of compound tested. Serial dilution series of test compounds were used to allow measurement of the IC50s and calculation of the resultant Ki. The linear portion of the reaction progress curve thus created was measured to yield an initial rate (Vo); a plot of Vo versus inhibitor concentration was fit by non-linear regression analysis (GraphPad Prism software) to calculate the […] and the Ki. All reactions in the inhibitor experiments contain a final concentration of 1% DMSO.

[3] = tested on: isolated islets / INS1 cells; test: Oxygen consumption, Seahorse XF24 bioenergetic assay; format: cell-based, mice; settings: 1 nM
Description: Impaired mitochondrial function is shown by a decreased rate of oxygen consumption. For example, INS1 cells exposed to palmitate show a significant decrease in oxygen consumption rate, both under basal glucose and following stimulation with glucose. The effect of compound 28 at 1 nM on oxygen consumption was determined at 2.5 and 3.5 day incubation time points. Oxygen consumption in INS1 was measured using a Seahorse XF24 bioenergetic assay. Assays have been previously described in detail (See, Wu M, et al. Am J Physiol Cell Physiol 2007; 292:C125-36).
In one aspect, islet oxygen consumption was measured using the XF24 Islet Capture Microplate available from Seahorse Biosciences. An example of an assay to measure islet consumption is as follows:
Modified XF Assay Media (MA Media): Supplement XF DMEM assay media with 3 mM glucose and 1% FBS to run whole islets. (FBS is needed to prevent islets from becoming too adherent). Components/Formulation of Modified XF Assay Media: […]
The XF assay template is prepared via the Assay Wizard using the XF24 operation manual. The assay template is uploaded to the XF24 Analyzer before starting the assay. […]
Whole islets are prepared by standard laboratory procedure. […] The islets are counted under a dissecting microscope. […] The count of the islets is determined and the volume adjusted so that there are ˜70 islets for every 100 microliters of the islet suspension. […]

SMILES	IC50 [1] [nM]	Ki [2] [nM]	increase in mitochondrial respiration (Oxygen Consumption Rate vs. time, % of base line) ([3]; 2.5 days incubation (FIG. 1)) [%]	increase in oxygen consumption ([3]; isolated islets (FIGS. 1 and 2)) [%]
N#Cc1ccc(Cn2cncc2CN[C@H]2CCN([C@@H]3CCOc4ccc(F)cc43)C2=O)cc1 [Compound 28]	1.4	0.059	50	50
N#Cc1ccc(Cn2cncc2CN[C@H]2CCN([C@@H]3CCOc4ccc(Cl)cc43)C2=O)cc1 [Compound 29]	1.8	0.021	–	–
N#Cc1ccc(Cn2cncc2CN[C@H]2CCN([C@@H]3CCCc4ccc(Cl)cc43)C2=O)cc1 [Compound 30]	2.8	0.12	–	–
N#Cc1ccc(Cn2cncc2CN[C@H]2CCN(C3CCOc4ccc(F)cc43)C2=O)cc1 (stereo partly shown) [Compound 70]	42	–	–	–
N#Cc1ccc(Cn2cncc2CN[C@@H]2CCN([C@@H]3CCOc4ccc(F)cc43)C2=O)cc1 [Compound 71]	2.5	–	–	–
